From patent US8410107B2, “N-pyridin-3-yl or N-pyrazin-2-yl carboxamides” (Hoffmann-La Roche Inc., priority 2010, dated 2013)

Assays:
[1] = system: ABCA1 protein; test: Detection of upregulation of ABCA1 protein in cells (ApoA-I binding, high content image analysis); format: cell-based; settings: THP-1 macrophage cells; for EC50: ABCA1 protein increasing efficacy; for % increase of ABCA1 at 3 μM: 24 hrs with compound
Description: The ability of compounds of the invention to increase the level of ABCA1 protein is determined in replicate cultures of THP-1 macrophage cells in 96-well microplates. Cells are plated at an initial density of 100,000 cells/well in 100 μl medium and differentiated to adherent macrophages with the addition of PMA (100 nM) for 68 hrs in 10% fetal bovine serum, 3 μl/L of b-mercaptoethanol, RPMI-1640 medium. Then, cells are incubated with RPMI-1640 medium containing 1% FCS, 25 μg/ml acetylated LDL, for 24 hours at 37°. Following incubation with acetylated LDL, cells are washed twice with 50 μl PBS and incubated with 100 μl of RPMI-1640 medium containing the compound of interest solubilized in DMSO for an additional 24 hrs. The final DMSO concentration in presence of cells is maintained at 0.5%. ApoA-I binding assay using High Content Image Analysis is initiated by replacing with fresh medium, RPMI without Phenol Red, 0.2% BSA containing AlexaFluor®647 labeled ApoA-I for 2 h/37° C./5% CO2. Then, cells are fixed with 4% Formaldehyde inPBS (15 min, RT). Following Nuclei are stained with Hoechst solution (3 μM PBS) and Cytoplasm with Cell Mask Blue (2 μg/ml PBS), 15 min, RT. Finally the stained cells are fixed with a second round of formaldehyde treatment. Fixed stained cells are washed and kept in PBS at 4° C. and can be read immediately until one month after preparation.
The Alexa Fluor 647-labeled Apolipoprotein A-I (20 nM) was prepared as follows: Human recombinant Apolipoprotein A-I (ApoA-I) was exchanged to a buffer of 0.02 M NaHCO3 at pH 8.2 on an NAP desalting column (GE Healthcare) and brought to a concentration to 40 μM (1.13 mg/ml) by adjustment with the same buffer. The ApoA-I was fluorescently labeled by incubation with Alexa Fluor carboxylic acid succimidyl ester. (Alexa Fluor 647, Invitrogen A-20006) at a 2:1 molar ratio (Alexa to ApoA-I) for 1 h under shaking at RT. The remaining unconjugated label was removed by buffer exchange to 0.02M NaHCO3 at pH 8.2.
Imaging and data collection were performed on an OPERA confocal microplate imaging reader using a 20× water immersion objective and UV360 or 405 laser to identify the cell nuclei and a 635 laser to identify the fluorescent ApoA-I. Eight fields of view are captured per well. Image capture and analysis was performed with the Acapella software. Background fluorescence detected in control wells without ApoA-I was subtracted.
Using XLfit3 program (ID Business Solutions Ltd. UK), the model 205 for Dose Response One Site is used to calculate the EC50 values. The compounds of the present invention increase the level of ABCA1 protein by more than 45% at a concentration of 3 μM. […] Even more preferably, the compounds of the present invention have EC50 values in a range of 0.1 μM to 3 μM.

[2] = biological target: T1, human CB1 receptor (Homo sapiens, UniProt P21554); test: CB1 receptor affinity ([3H]-CP-55,940 displacement, HEK cell membranes); format: binding; settings: displacement of radioligand [3H]-CP-55,940
T1 construct: expressed in transfected cells; host or cells: human embryonic kidney (HEK) cells, Semliki Forest Virus system, membrane preparations
T1 sequence (P21554 whole entry): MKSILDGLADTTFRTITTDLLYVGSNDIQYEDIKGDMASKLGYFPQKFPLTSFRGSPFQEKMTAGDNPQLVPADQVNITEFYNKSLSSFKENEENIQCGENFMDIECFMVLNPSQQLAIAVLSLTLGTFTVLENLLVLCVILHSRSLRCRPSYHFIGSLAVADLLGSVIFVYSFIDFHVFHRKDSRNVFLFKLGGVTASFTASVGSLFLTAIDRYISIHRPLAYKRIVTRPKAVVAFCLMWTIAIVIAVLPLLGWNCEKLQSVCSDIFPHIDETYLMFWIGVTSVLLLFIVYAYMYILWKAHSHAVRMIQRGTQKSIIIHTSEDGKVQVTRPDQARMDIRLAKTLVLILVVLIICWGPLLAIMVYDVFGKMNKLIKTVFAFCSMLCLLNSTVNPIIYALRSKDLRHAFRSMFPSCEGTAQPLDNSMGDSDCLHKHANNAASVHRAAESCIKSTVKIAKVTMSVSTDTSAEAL
Description: (§1) The affinity of the compounds of the invention for cannabinoid receptors was determined using membrane preparations of human embryonic kidney (HEK) cells in which the human CB1 receptor is transiently transfected using a Semliki Forest Virus system in conjunction with [3H]-CP-55,940 as radioligand. After incubation of freshly prepared cell membrane preparation with the [^3H]-ligand, with or without addition of compounds of the invention, separation of bound and free ligand was performed by filtration over glass fiber filters. Radioactivity on the filter was measured by scintillation counting.
(§2) The ability of the compounds to displace the radioligand [^3H]-CP-55,940 was measured at a concentration of 10 μM and values provided as [% inhibition @ 10 μM] both for the CB1 and CB2 receptor assay, The lower % inhibition is, the lower the likelihood of side effects based on CB1 or CB2 receptor inhibition is.

[3] = biological target: T2, human CB2 receptor (Homo sapiens, UniProt P34972); test: CB2 receptor affinity ([3H]-CP-55,940 displacement, HEK cell membranes); format: binding; settings: displacement of radioligand [3H]-CP-55,940
T2 construct: expressed in transfected cells; host or cells: human embryonic kidney (HEK) cells, Semliki Forest Virus system, membrane preparations
T2 sequence (P34972 whole entry): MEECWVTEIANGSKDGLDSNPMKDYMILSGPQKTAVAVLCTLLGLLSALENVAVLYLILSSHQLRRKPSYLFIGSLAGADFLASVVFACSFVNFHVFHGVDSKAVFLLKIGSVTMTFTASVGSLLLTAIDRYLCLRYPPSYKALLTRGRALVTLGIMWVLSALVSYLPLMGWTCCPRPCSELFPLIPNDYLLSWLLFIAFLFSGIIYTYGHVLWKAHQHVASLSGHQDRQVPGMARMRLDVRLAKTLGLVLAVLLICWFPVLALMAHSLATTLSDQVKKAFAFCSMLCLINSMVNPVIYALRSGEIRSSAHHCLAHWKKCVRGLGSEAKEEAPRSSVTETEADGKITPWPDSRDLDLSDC
Description: as §1, with “cannabinoid CB2” for “cannabinoid”, “CB2” for “CB1”, “[^3H]-CP-55,940” for “[3H]-CP-55,940”
as §2

Row | SMILES | EC50 [1] | inhibition at 10 µM [2] | inhibition at 10 µM [3] | % increase of ABCA1 at 3 μM [1]
1 | Cn1nccc1C(=O)Nc1cnc(OCC(F)(F)F)c(-c2ccc(Cl)cc2)c1 [Example 20, 1-methyl-1H-pyrazole-5-carboxylic acid[5-(4-chloro-phenyl)-6-(2,2,2-trifluoro-ethoxy)-pyridin-3-yl]-amide] | 6400 nM | 34% | 9% | 
2 | Cc1nc(C)c(C(=O)Nc2cnc(OCC(F)(F)F)c(-c3ccc(Cl)cc3)c2)o1 [Example 21, 2,4-dimethyl-5-oxazolecarboxylic acid[5-(4-chloro-phenyl)-6-(2,2,2-trifluoro-ethoxy)-pyridin-3-yl]-amide] | 1370 nM | 29% | 1% | 
3 | O=C(Nc1cnc(OCC(F)(F)F)c(-c2ccc(Cl)cc2)c1)c1ccns1 [Example 22, 5-isothiazolecarboxylic acid[5-(4-chloro-phenyl)-6-(2,2,2-trifluoro-ethoxy)-pyridin-3-yl]-amide] |  | 45% | 8% | >45% @ 3 μM
4 | Cc1cc(C(=O)Nc2cnc(OCC(F)(F)F)c(-c3ccc(Cl)cc3)c2)n[nH]1 [Example 23, 5-methyl-1H-pyrazole-3-carboxylic acid[5-(4-chloro-phenyl)-6-(2,2,2-trifluoro-ethoxy)-pyridin-3-yl]-amide] | 720 nM | 12% | -8% | 
5 | O=C(Nc1cnc(OCC(F)(F)F)c(-c2ccc(Cl)cc2)c1)c1cc[nH]n1 [Example 24, 1H-pyrazole-3-carboxylic acid[5-(4-chloro-phenyl)-6-(2,2,2-trifluoro-ethoxy)-pyridin-3-yl]-amide] | 2310 nM | 25% | -1% | 
6 | Cc1cc(C(=O)Nc2cnc(OCC(F)(F)F)c(-c3ccc(Cl)cc3)c2)ccn1 [Example 25, N-[5-(4-chloro-phenyl)-6-(2,2,2-trifluoro-ethoxy)-pyridin-3-yl]-2-methyl-4-pyridinecarboxylic acid amide] | 2650 nM | 25% | -1% | 
7 | Cc1cnc(C(=O)Nc2cnc(OCC(F)(F)F)c(-c3ccc(Cl)cc3)c2)s1 [Example 26, 5-methyl-2-thiazole-carboxylic acid[5-(4-chloro-phenyl)-6-(2,2,2-trifluoro-ethoxy)-pyridin-3-yl]-amide] |  | 37% | 11% | >45% @ 3 μM
8 | Cc1nnsc1C(=O)Nc1cnc(OCC(F)(F)F)c(-c2ccc(Cl)cc2)c1 [Example 27, 4-methyl-1,2,3-thiadiazole-5-carboxylic acid[5-(4-chloro-phenyl)-6-(2,2,2-trifluoro-ethoxy)-pyridin-3-yl]-amide] |  | 47% | 10% | >45% @ 3 μM
9 | Cc1ccc(C(=O)Nc2cnc(OCC(F)(F)F)c(-c3ccc(Cl)cc3)c2)cn1 [Example 28, N-[5-(4-chloro-phenyl)-6-(2,2,2-trifluoro-ethoxy)-pyridin-3-yl]-6-methyl-3-pyridinecarboxylic acid amide] |  | 36% | -6% | >45% @ 3 μM
10 | Cc1ncccc1C(=O)Nc1cnc(OCC(F)(F)F)c(-c2ccc(Cl)cc2)c1 [Example 29, N-[5-(4-chloro-phenyl)-6-(2,2,2-trifluoro-ethoxy)-pyridin-3-yl]-2-methyl-3-pyridinecarboxylic acid amide] |  | 41% | 19% | >45% @ 3 μM
11 | O=C(Nc1cnc(OCC(F)(F)F)c(-c2ccc(Cl)cc2)c1)c1ccno1 [Example 30, 5-isoxazolecarboxylic acid[5-(4-chloro-phenyl)-6-(2,2,2-trifluoro-ethoxy)-pyridin-3-yl]-amide] | 3860 nM | 27% | -4% | 
12 | Cc1noc(C)c1C(=O)Nc1cnc(OCC(F)(F)F)c(-c2ccc(Cl)cc2)c1 [Example 31, 3,5-dimethyl-4-isoxazolecarboxylic acid[5-(4-chloro-phenyl)-6-(2,2,2-trifluoro-ethoxy)-pyridin-3-yl]-amide] |  | 44% | 7% | >45% @ 3 μM
13 | O=C(Nc1cnc(OCC(F)(F)F)c(-c2ccc(Cl)cc2)c1)c1ccnc(O)c1 [Example 32, N-[5-(4-chloro-phenyl)-6-(2,2,2-trifluoro-ethoxy)-pyridin-3-yl]-1,2-dihydro-2-oxo-4-pyridinecarboxylic acid amide] | 1000 nM | 21% | 0.9% | 
14 | Cc1nn(C)cc1C(=O)Nc1cnc(OCC(F)(F)F)c(-c2ccc(Cl)cc2)c1 [Example 33, 1,3-dimethyl-1H-pyrazole-4-carboxylic acid[5-(4-chloro-phenyl)-6-(2,2,2-trifluoro-ethoxy)-pyridin-3-yl]-amide] |  | 22% | -2% | >45% @ 3 μM
15 | O=C(Nc1cnc(OCC(F)(F)F)c(-c2ccc(Cl)cc2)c1)c1ccncn1 [Example 34, 4-pyrimidinecarboxylic acid[5-(4-chloro-phenyl)-6-(2,2,2-trifluoro-ethoxy)-pyridin-3-yl]-amide] | 2400 nM | 31% | 10% | 
16 | O=C(Nc1cnc(OCC(F)(F)F)c(-c2ccc(Cl)cc2)c1)c1nccs1 [Example 35, 2-thiazolecarboxylic acid[5-(4-chloro-phenyl)-6-(2,2,2-trifluoro-ethoxy)-pyridin-3-yl]-amide] |  | 18% | -3% | >45% @ 3 μM
17 | Cc1cccnc1C(=O)Nc1cnc(OCC(F)(F)F)c(-c2ccc(Cl)cc2)c1 [Example 36, 3-methyl-2-pyridinecarboxylic acid[5-(4-chloro-phenyl)-6-(2,2,2-trifluoro-ethoxy)-pyridin-3-yl]-amide] | 510 nM | 18% | 2% | 
18 | Cc1ocnc1C(=O)Nc1cnc(OCC(F)(F)F)c(-c2ccc(Cl)cc2)c1 [Example 37, 5-methyl-4-oxazolecarboxylic acid[5-(4-chloro-phenyl)-6-(2,2,2-trifluoro-ethoxy)-pyridin-3-yl]-amide] |  | 27% | 8% | >45% @ 3 μM
19 | Cc1ccc(-c2cc(NC(=O)c3cccnc3)cnc2OCC(F)(F)F)cc1C [Example 38, N-(5-(3,4-dimethylphenyl)-6-(2,2,2-trifluoroethoxy)pyridin-3-yl)nicotinamide] | 2910 nM | 12% | 15% | 
20 | Cc1cc(-c2cc(NC(=O)c3cccnc3)cnc2OCC(F)(F)F)ccc1Cl [Example 39, N-(5-(4-chloro-3-methylphenyl)-6-(2,2,2-trifluoroethoxy)pyridin-3-yl)nicotin-amide] | 2230 nM | 19% | 16% | 
